# Results published in EP4050002A1, “ANTI-PROLIFERATIVE AGENTS” (First Health Pharmaceuticals B.V., priority 2021, dated 2022).
# Where two headings read alike, the source gives them in different places.
# Experiments:
# [1] = Tissue distribution in xenograft mice (conditions #1, #1A, #1B); format: in vivo, male FOXN1nu/nu nude mice; conditions: for Kp at 4 h: mouse, brain, ip, read-out: Brain to plasma
# Experimental: The pharmacokinetic study was performed in male Swiss albino mice from Hylasco Biotechnology Pvt. Ltd. (A Charles River technology Licensee). The tissue distribution study was performed in male Swiss albino mice and in male FOXN1^nu/nu nude mice (Envigo spa). The efficacy study was performed in male FOXN1^nu/nu nude mice.
# At study closure, animals were sacrificed and tumor and tissues removed for further studies of distribution and morphology. Mice from the efficacy study were anesthetized using gaseous anesthesia and blood samples collected in Li-Heparin containing tubes by intracardiac puncture, stored on ice, centrifuged within 15 minutes to separate plasma at 1540 ref (5000 rpm), at 4°C for 10 minutes; plasma was separated and transferred to new tubes. After blood collection, tissues for bio-analyses were separated, washed in PBS, dried and frozen at -80±10°C until homogenization.
# The levels of compound in the tissues were quantified by LC-MS/MS as follows.
# UHPLC-MS/MS analysis was performed on a Q-Exactive Plus (ThermoFisher Scientific) mass spectrometer coupled with an UHPLC Ultimate 3000SD (ThermoFisher Scientific).
# Chromatographic separation of the analytes was performed on an Acquity UPLC BEH Shield RP18 column ([…], 2.1 mm x 50 mm, […]) with a column temperature at 40°C.
# The flow rate was 250 µl/min. The mobile phase was a gradient of a mixture of 10 mM ammonium acetate with 0.1% formic acid (phase A) and Acetonitrile:Methanol (50:50 v/v) as phase B. The gradient profile used began with an elution of (A:B) 70:30 v/v for 1 min, followed by a gradual decrease of A to (A:B) 5:95 v/v until 5 min, a constant gradient for 1 min of 95% of B, then a gradual decrease of B to the initial condition until 7 min and then a final conditioning of the column for about 4 min in order to equilibrate for the next injection.
# The electrospray ionization source (ESI) was operated in positive mode. Parallel reaction monitoring (PRM) methods was applied to quantify compound 5. The selected transitions m/z 414.20-243.10 for compound 5 and m/z 360.18- 243.12 for the internal standard (compound 4) were considered. Each sample was assayed in duplicate.
# Preparation of plasma samples: Mouse plasma (10 µl) was placed into a tube containing 188 µl of a chilled Acetonitrile:Methanol solution (50:50 v/v) in order to precipitate proteins. Each sample was spiked with a fixed concentration (200 nM) of compound 4 used as internal standard. After 1 min of vortex, the mixture was centrifuged at 10,000 x g for 15 minutes at 4 °C to separate the protein material from the supernatant. The last one of each sample was transferred to a new sample tube and the solvent was evaporated under nitrogen stream. The dried material was re-suspended in 100 µl of mobile phase. The resulting solution was then analyzed by UHPLC-MS/MS without further modifications.
# Preparation of tissue samples was as follows: the tissues of interest were washed briefly with chilled water to remove traces of blood, if necessary, and cut into small pieces, keeping them on ice during all the operations. Then the samples were transferred to a tube and homogenized in purified water using the homogenizer TissueRuptor of Qiagen. In general, 300 µl of purified water was added to 50 mg of tissue. The homogenized samples were centrifuged at 10,000 x g for 15 minutes at 4°C to pellet cell debris, and then the supernatant were transferred to a clean tube in order to perform protein precipitation using a chilled solution of Acetonitrile:Methanol (50:50 v/v) and vortexed for 1 min. Before protein precipitation a fixed concentration (200 nM) of internal standard (Compound 4) was added in every sample. After centrifugation, the supernatant was separated from protein pellet and dried under nitrogen stream. 50 µl of mobile phase was used to re-suspend each dried sample. […]
# [2] = Plasma stability; format: in vitro ADME, Sprague Dawley rats; conditions: Rat plasma
# Experimental: Plasma previously separated from whole blood in EDTA-treated tubes and frozen; blood samples obtained from healthy volunteers, Sprague Dawley rats and CD1 mice, was thawed at room temperature and centrifuged at 1400x RCF 4°C, for 15 minutes. Approximately 90% of the clear supernatant fraction was transferred to a separate tube and was used for the assay.
# Stocks (1 mM and 25 µM) of test compound were prepared in acetonitrile:water (50:50 v/v). Plasma samples were heat inactivated at 54°C. 3 µl of 25 µM test compound were added to 72 µl of heat inactivated plasma. A 50 µL aliquot of the mixture was taken and crashed with 200 µl of acetonitrile containing Telmisartan 100 ng/ml as internal standard and was further processed along with other time points: 10, 30 60 and 120 minutes.
# Final working stock of 1 µM was prepared by diluting 12 µl of 25 µM stock in 288 µl of plasma. The obtained solution (300 µl) of plasma containing the test compound was incubated for […] at 37°C in shaker water bath with gentle shaking. 50 µl aliquot of sample at 10, 30, 60 and 120 min was precipitated immediately with 200 µl of acetonitrile containing internal standard and centrifuged at 4000x RCF, 4°C for 20 minutes. 150 µl of supernatant was diluted with 150 µl of water and analyzed by LC-MS/MS.
# The % remaining of the test substance was calculated as: (Peak Area ratio at time (min))/(Peak Area Ratio at 0 min) ^∗ 100
# The API400 MS and Agilent 1260 Infinity LC were used. Mobile Phase included 10mM Ammonium acetate with 0.1% formic acid in MilliQ water, and Methanol. The column was Phenomenex, KINETIC EVO C18 100A 5u 50^∗4.6 mm, 10 µl injection volume.
# [3] = #1: single I.P. administration, 45 mg/Kg, withdrawal 4 hours after administration
# [4] = #1A: two I.P. administration, 45 mg/Kg, at distance of 48 hours, withdrawal 4 hours after last administration
# [5] = #1B: 6 weeks of repeated I.P. administration, 45 mg/kg, every 48 hours, withdrawal 4 hours after last administration
structure (smiles),measurement,setting,value
CCCCc1cn(-c2ccc(-c3nnc(-c4ccccc4C(F)(F)F)o3)cc2)nn1 [Compound 5],Adipose to plasma,[1]; [3],14.3
same,Breast to plasma,[1]; [3],42.9
same,Intestine to plasma,[1]; [3],5.8
same,Kidney to plasma,[1]; [3],23.1
same,Liver to plasma,[1]; [3],7.3
same,Lung to plasma,[1]; [3],12.6
same,Lymph node to plasma,[1]; [3],17.9
same,Plasma,[1]; [3],2099.8 ng/mL
same,Spleen to plasma,[1]; [3],26.1
same,Tumor to plasma,[1]; [3],11.3
same,Adipose to plasma,[1]; [4],31.8
same,Breast to plasma,[1]; [4],10.9
same,Intestine to plasma,[1]; [4],4.2
same,Kidney to plasma,[1]; [4],21.6
same,Liver to plasma,[1]; [4],12.9
same,Lung to plasma,[1]; [4],10.3
same,Lymph node to plasma,[1]; [4],137.7
same,Plasma,[1]; [4],2188.6 ng/mL
same,Spleen to plasma,[1]; [4],23.3
same,Tumor to plasma,[1]; [4],39.9
same,Adipose to plasma,[1]; [5],233.3
same,Breast to plasma,[1]; [5],18.5
same,Intestine to plasma,[1]; [5],10.9
same,Kidney to plasma,[1]; [5],18.3
same,Liver to plasma,[1]; [5],12.4
same,Lung to plasma,[1]; [5],9.6
same,Lymph node to plasma,[1]; [5],27.5
same,Plasma,[1]; [5],4658.9 ng/mL
same,Spleen to plasma,[1]; [5],21.4
same,Tumor to plasma,[1]; [5],14.9
same,Kp at 4 h,"[1]; 45 mg/kg, #1: single I.P. administration, 45 mg/Kg, withdrawal 4 hours after administration",0.5
same,Kp at 4 h,"[1]; 45 mg/kg, #1A: two I.P. administration, 45 mg/Kg, at distance of 48 hours, withdrawal 4 hours after last administration",1.1
same,Kp at 4 h,"[1]; 45 mg/kg, #1B: 6 weeks of repeated I.P. administration, 45 mg/kg, every 48 hours, withdrawal 4 hours after last administration",0.7
same,% Remaining ± SD,[2]; 0 minutes,100.0 ± 1.0%
same,% Remaining ± SD,[2]; 10 minutes,107.1 ± 4.1%
same,% Remaining ± SD,[2]; 30 minutes,103.3 ± 2.3%
same,% Remaining ± SD,[2]; 60 minutes,99.0 ± 6.8%
same,% Remaining ± SD,[2]; 120 minutes,104.8 ± 5.6%
